Measurements: PubChem BioAssay (NCI)
Where “and” joins values, the source holds several entries; their conditions need not be identical. Identical values can stand only once.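 In this assay, cells in 96-well plates receive the compound at five concentrations for 48 hours. Endpoints are linearly interpolated between the surrounding concentrations. At the GI50, growth is halved. TGI: total growth inhibition.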

Columns and labels:
Test in all cases: NCI-60 cell line screen, 48 h
HCT-116 colon = tested on: HCT-116 colon
MCF7 breast = tested on: MCF7 breast
A498 renal = tested on: A498 renal
SR leukemia = tested on: SR leukemia
SK-MEL-5 melanoma = tested on: SK-MEL-5 melanoma
786-0 renal = tested on: 786-0 renal
SK-MEL-2 melanoma = tested on: SK-MEL-2 melanoma
UACC-257 melanoma = tested on: UACC-257 melanoma
HS 578T breast = tested on: HS 578T breast
MDA-N = tested on: MDA-N
SNB-19 CNS = tested on: SNB-19 CNS
MOLT-4 leukemia = tested on: MOLT-4 leukemia
DU-145 prostate = tested on: DU-145 prostate
SK-MEL-28 melanoma = tested on: SK-MEL-28 melanoma
HCC-2998 colon = tested on: HCC-2998 colon

| SMILES | TGI (HCT-116 colon) | TGI (MCF7 breast) | TGI (A498 renal) | TGI (SR leukemia) | TGI (SK-MEL-5 melanoma) | TGI (786-0 renal) | TGI (SK-MEL-2 melanoma) | TGI (UACC-257 melanoma) | TGI (HS 578T breast) | TGI (MDA-N) | TGI (SNB-19 CNS) | TGI (MOLT-4 leukemia) | TGI (DU-145 prostate) | TGI (SK-MEL-28 melanoma) | TGI (HCC-2998 colon) | GI50 (HCT-116 colon) | GI50 (SR leukemia) | GI50 (SK-MEL-2 melanoma) | GI50 (MOLT-4 leukemia) | GI50 (DU-145 prostate) |
| --- | --- | --- | --- | --- | --- | --- | --- | --- | --- | --- | --- | --- | --- | --- | --- | --- | --- | --- | --- | --- |
| O=c1c(Cc2ccccc2)c(-c2ccccc2)[nH]n1C1=NCCN1 | 66.7 µM | > 100 µM | > 100 µM | > 100 µM | > 100 µM | > 100 µM | > 100 µM | > 100 µM | > 100 µM | > 100 µM | > 100 µM | > 100 µM |  |  |  |  |  |  |  |  |
| Nc1n[nH]c2ccccc12 | > 100 µM | > 100 µM | > 100 µM | > 100 µM | > 100 µM | > 100 µM | > 100 µM | > 100 µM | > 100 µM | > 100 µM | > 100 µM | > 100 µM | > 100 µM | > 100 µM |  |  |  |  |  |  |
| Cc1cccc(NC(Nc2cccc(C)c2)=C(C(Cl)=C(Cl)Cl)[N+](=O)[O-])c1 | > 46.4 µM | > 100 µM | > 86 µM | 42.8 µM | 19.6 µM | 44.3 µM | 48.5 µM | > 53.4 µM | 11.2 µM | > 35.1 µM | > 63 µM | > 20 µM | > 57.5 µM | 41.2 µM | > 57.8 µM |  |  |  |  |  |
| COC(=O)[C@H]1C=C[C@H](OC2OC(COC(C)=O)C(OC(C)=O)C(OC(C)=O)C2OC(C)=O)n2c(=O)n(-c3ccccc3)c(=O)n21 (stereo not given in full) | > 30.5 µM |  | 17.6 µM | 8.33 µM | > 22.4 µM | 14.7 µM | 30.6 µM | 20.6 µM | 9.59 µM | 18.5 µM | 31.3 µM | 6.16 µM | 21.1 µM | 8.63 µM | 4.55 µM |  |  |  |  |  |
| COc1cc(OC)c(C2c3cc4c(cc3OC(N3CCOCC3)C2C)OCO4)c(OC)c1 (stereo not given) | > 100 µM | > 100 µM |  | > 100 µM | > 100 µM | > 100 µM | > 100 µM | > 100 µM | 20.5 µM | > 100 µM | > 100 µM | > 100 µM | > 100 µM | > 100 µM | > 100 µM |  |  |  |  |  |
| C/C(=N\Nc1nc2ccccc2s1)c1cccnn1 | 25.5 µM | > 100 µM |  | 52.5 µM | > 100 µM | > 100 µM | 36.8 µM | > 100 µM | 44.1 µM | > 100 µM | > 100 µM | > 100 µM | > 100 µM | > 100 µM | 89.9 µM |  |  |  |  |  |
| CCOC(=O)c1ccc(C(=O)/C(C(=O)OC(C)(C)C)=C2\CCCN2C)n1C | > 100 µM | > 100 µM | > 100 µM | > 100 µM | 52.9 µM | > 100 µM | > 100 µM | > 100 µM | > 100 µM | > 100 µM | > 100 µM | > 100 µM | > 100 µM | > 100 µM | > 100 µM |  |  |  |  |  |
| CCN(CC)C(=S)SS(=O)(=O)c1ccc(C)cc1 |  |  | > 100 µM |  | 30.4 µM | 50.5 µM | > 100 µM | 46.3 µM | > 100 µM | > 100 µM | > 100 µM |  | > 100 µM | 39.4 µM | > 100 µM |  |  |  |  |  |
| COCC(=O)OC1CCn2c1nc1c2C(=O)C(C)=C(NC(C)=O)C1=O (stereo not given) | 10.4 µM | 3.53 µM and 3.75 µM | 49.2 µM | 5.17 µM and 12.5 µM | 26.8 µM | 18.4 µM | 13.5 µM | 9.08 µM | 16.8 µM | 3.39 µM and 3.4 µM | 40.5 µM | 6.36 µM and 4.94 µM | 22.2 µM | 28.6 µM | 28.7 µM | 4.08 µM | 2.52 µM | 5.34 µM | 0.772 µM |  |
| C[C@@H]1C(=O)CC2(O)[C@@]13C[C@@H](OC(=O)[C@@H]3O)[C@@H](C)[C@@]21COC1=O (stereo not given in full) | > 100 µM | > 100 µM |  | > 100 µM | > 100 µM | > 100 µM | > 100 µM | > 100 µM | > 100 µM | > 100 µM | > 100 µM | > 100 µM | > 100 µM | > 100 µM | > 100 µM |  |  |  |  |  |
| COc1cc2c3c(n(C)c(=O)c2cc1OC)-c1cc2c(cc1/C3=C/CCCCBr)OCO2 | > 100 µM | > 100 µM | 87.4 µM | 15.6 µM | > 100 µM | > 100 µM | > 100 µM | > 100 µM | > 100 µM | > 100 µM | > 100 µM | > 100 µM | > 100 µM | > 100 µM |  | 9.47 µM |  |  |  | 4.46 µM |
| CC(C)(C)OC(=O)c1ccc(NCc2cc(O)ccc2O)cc1 | 16.1 µM | 18.4 µM | 19.5 µM | > 34.5 µM | 13.1 µM | 5.38 µM | 18.8 µM | 14.9 µM | 18.6 µM | 16.3 µM | 38.8 µM | 11.2 µM | 43.3 µM | 5.28 µM | 22.1 µM |  |  |  |  |  |
| C=C1CC=CC(C)(C)C1C/C=C(\C)C(O)CBr (stereo not given) | > 100 µM | > 100 µM | > 100 µM | 88.5 µM | > 100 µM | > 100 µM | > 100 µM | > 100 µM | > 100 µM | > 100 µM | > 100 µM | > 100 µM | > 100 µM | > 100 µM | > 100 µM |  |  |  |  |  |
| CCOP(=O)(OCC)c1cc(-c2ccccc2)ccc1N | > 100 µM | > 100 µM | > 100 µM |  | > 100 µM | > 100 µM | > 100 µM | > 100 µM | > 100 µM | > 100 µM | > 100 µM | > 100 µM | > 100 µM | > 100 µM | > 100 µM |  |  |  |  |  |
| O=c1oc2ccccc2c2nc3ccccc3cc12 | > 100 µM |  | 96.4 µM | > 100 µM | > 100 µM | 80.4 µM | > 100 µM | > 100 µM | 66.7 µM | > 100 µM | 70.3 µM | > 100 µM | > 100 µM | > 100 µM | > 100 µM |  |  |  |  |  |
| COC1OC2COC(C)(C)OC2C2OC(C)(C)OC12 (stereo not given) | > 100 µM | > 100 µM | > 100 µM |  | > 100 µM | 52 µM | > 100 µM | > 100 µM | 50 µM | > 100 µM | 54.4 µM | 87.9 µM | > 100 µM | > 100 µM | > 100 µM |  |  |  |  |  |
